Results published in EP2030621A1, “Novel substituted pyrimidines as cysteine protease inhibitors” (GLAXO GROUP LIMITED, priority 2007, dated 2009).
Where a name gives a salt, the structure may show the parent alone.

test system: Plasmodium falciparum parasite; experiment: Whole cell assay: whole cell activity against the parasite; assay type: cell-based; conditions: not given
From the text: Compounds can be evaluated for whole cell actvity against the Plasmadium falciparum parasite according to the procedure described in Sijwali S. and Rosenthal P. J., (2004) Proceedings of the National Academy of Sciences of the United States of America (PNAS) 101(13), 4384-4389 (see in particular "Measurement of Parasite Growth rates and Inhibitor Sensitivity" on page 4385); IC50 values can be calculated as described in Singh A. and Rosenthal P. J., (2001) Antimicrobial Agents and Chemotherapy 45(3), 949-951 (see in particular page 950, first column); synchronised parasites can be prepared as described in Divo A. A. et al., (1985) Protozool. 32, 59-64. 3) In vitro models to evaluate activity against bone metastasis

| Structure (SMILES) | IC50 [nM] |
| --- | --- |
| CN1CCC(CN2CCN(Cc3ccc(C(=O)NN(c4nc(C#N)ncc4Br)C4CCCC4)cc3)CC2)CC1 [Example 7, N'-(5-bromo-2-cyano-4-pyrimidinyl)-N'-cyclopentyl-4-({4-[(1-methyl-4-piperidinyl)methyl]-1-piperazinyl}methyl)benzohydrazide trifluoroacetate] | 1 to 2.5 |
| CN1CCN(c2ncc(C(=O)NN(c3nc(C#N)ncc3Cl)C3CCCC3)s2)CC1 [Example 77] | 15 to 150 |

same assay, conditions: Plasmodium falciparum

| Structure (SMILES) | IC50 [nM] |
| --- | --- |
| CN(Cc1ccc(C(=O)NN(c2nc(C#N)ncc2Cl)C2CCCC2)cc1)CC(O)CO (stereo not shown) [Example 76, N'-(5-chloro-2-cyano-4-pyrimidinyl)-N'-cyclopentyl-4-{[(2,3-dihydroxypropyl)(methyl)amino]methyl}benzohydrazide trifluoroacetate] | 15 to 150 |
| N#Cc1ncc(Br)c(N(NC(=O)c2ccc(CN3CCC(N4CCOCC4)CC3)cc2)C2CCCCC2)n1 [Example 18, N'-(5-bromo-2-cyano-4-pyrimidinyl)-N'-cyclohexyl-4-{[4-(4-morpholinyl)-1-piperidinyl]methyl}benzohydrazide trifluoroacetate] | 15 to 150 |
| CN1CCCC(CN2CCN(Cc3ccc(C(=O)NN(c4nc(C#N)ncc4Br)C4CCCCC4)cc3)CC2)C1 (stereo not shown) [Example 25, N'-(5-bromo-2-cyano-4-pyrimidinyl)-N'-cyclohexyl-4-({4-[(1-methyl-3-piperidinyl)methyl]-1-piperazinyl}methyl)benzohydrazide trifluoroacetate] | 2.5 to 15 |
| CN1CCN(C2CCN(Cc3cccc(C(=O)NN(c4nc(C#N)ncc4Br)C4CCCC4)c3)CC2)CC1 [Example 11, N'-(5-bromo-2-cyano-4-pyrimidinyl)-N'-cyclopentyl-3-{[4-(4-methyl-1-piperazinyl)-1-piperidinyl]methyl}benzohydrazide trifluoroacetate] | 2.5 to 15 |
| CN1CCN(C2CCN(Cc3ccc(C(=O)NN(c4nc(C#N)ncc4Cl)C4CCOCC4)cc3)CC2)CC1 [Example 34, N'-(5-Chloro-2-cyano-4-pyrimidinyl)-4-{[4-(4-methyl-1-piperazinyl)-1-piperidinyl]methyl}-N'-(tetrahydro-2H-pyran-4-yl)benzohydrazide trifluoroacetate] | 2.5 to 15 |
| CN1CCN(C2CCN(Cc3ccc(C(=O)NN(c4nc(C#N)ncc4Br)C4CCN(C(=O)OCc5ccccc5)CC4)cc3)CC2)CC1 [Example 48, Phenylmethyl 4-{1-(5-bromo-2-cyano-4-pyrimidinyl)-2-[(4-{[4-(4-methyl-1-piperazinyl)-1-piperidinyl]methyl}phenyl)carbonyl]hydrazino}-1-piperidinecarboxylate triflouroacetate] | 15 to 150 |
| CN1CCN(Cc2ccc(C(=O)NN(c3nc(C#N)ncc3Cl)C3CCCCC3)cc2)CC1 [Example 51, N'-(5-chloro-2-cyano-4-pyrimidinyl)-N'-cyclohexyl-4-[(4-methyl-1-piperazinyl)methyl]benzohydrazide trifluoroacetate] | 15 to 150 |
| N#Cc1ncc(Br)c(N(NC(=O)c2cccc(CN3CCC(N4CCOCC4)CC3)c2)C2CCCC2)n1 [Example 13, N'-(5-bromo-2-cyano-4-pyrimidinyl)-N'-cyclopentyl-3-{[4-(4-morpholinyl)-1-piperidinyl]methyl}benzohydrazide trifluoroacetate] | 15 to 150 |
| CN1CCN(C(=O)C2CCN(Cc3ccc(C(=O)NN(c4nc(C#N)ncc4Br)C4CCCCC4)cc3)CC2)CC1 [Example 22, N'-(5-bromo-2-cyano-4-pyrimidinyl)-N'-cyclohexyl-4-({4-[(4-methyl-1-piperazinyl)carbonyl]-1-piperidinyl}methyl)benzohydrazide trifluoroacetate] | 2.5 to 15 |
| N#Cc1ncc(Br)c(N(NC(=O)c2cccc(CN3CCC(N4CCOCC4)CC3)c2)C2CCCCC2)n1 [Example 24, N'-(5-bromo-2-cyano-4-pyrimidinyl)-N'-cyclohexyl-3-{[4-(4-morpholinyl)-1-piperidinyl]methyl}benzohydrazide trifluoroacetate] | 2.5 to 15 |
| CN1CCN(Cc2ccc(C(=O)NN(c3nc(C#N)ncc3Br)C3CCCCC3)cc2)CC1 [Example 16, N'-(5-bromo-2-cyano-4-pyrimidinyl)-N'-cyclohexyl-4-[(4-methyl-1-piperazinyl)methyl]benzohydrazide trifluoroacetate] | 2.5 to 15 |
| CN(Cc1ccc(C(=O)NN(c2nc(C#N)ncc2Cl)C2CCCC2)cc1)C(C)(C)Cc1ccccc1 [Example 71, N'-(5-chloro-2-cyano-4-pyrimidinyl)-N'-cyclopentyl-4-{[(1,1-dimethyl-2-phenylethyl)(methyl)amino]methyl}benzohydrazide trifluoroacetate] | 15 to 150 |
| CCN(CC)Cc1ccc(C(=O)NN(c2nc(C#N)ncc2Cl)C2CCCC2)cc1 [Example 66, N'-(5-chloro-2-cyano-4-pyrimidinyl)-N'-cyclopentyl-4-[(diethylamino)methyl]benzohydrazide trifluoroacetate] | 15 to 150 |
| CN1CCN(c2cccc(C(=O)NN(c3nc(C#N)ncc3Cl)C3CCCC3)n2)CC1 [Example 78, N'-(5-chloro-2-cyano-4-pyrimidinyl)-N'-cyclopentyl-6-(4-methyl-1-piperazinyl)-2-pyridinecarbohydrazide trifluoroacetate] | 15 to 150 |
| CN1CCC(CN2CCN(Cc3cccc(C(=O)NN(c4nc(C#N)ncc4Br)C4CCCCC4)c3)CC2)CC1 [Example 28, N'-(5-bromo-2-cyano-4-pyrimidinyl)-N'-cyclohexyl-3-({4-[(1-methyl-4-piperidinyl)methyl]-1-piperazinyl}methyl)benzohydrazide trifluoroacetate] | 2.5 to 15 |
| CN1CCC(CN2CCN(Cc3ccc(C(=O)NN(c4nc(C#N)ncc4Br)C4CCCCC4)cc3)CC2)CC1 [Example 19, N'-(5-bromo-2-cyano-4-pyrimidinyl)-N'-cyclohexyl-4-({4-[(1-methyl-4-piperidinyl)methyl]-1-piperazinyl}methyl)benzohydrazide trifluoroacetate] | 2.5 to 15 |
| CN(Cc1ccc(C(=O)NN(c2nc(C#N)ncc2Cl)C2CCCC2)cc1)C(C)(C)C [Example 73, N'-(5-chloro-2-cyano-4-pyrimidinyl)-N'-cyclopentyl-4-{[(1,1-dimethylethyl)(methyl)amino]methyl}benzohydrazide trifluoroacetate] | 2.5 to 15 |
| N#Cc1ncc(Cl)c(N(NC(=O)c2ccc(CN3CCC(O)CC3)cc2)C2CCCC2)n1 [Example 70, N'-(5-chloro-2-cyano-4-pyrimidinyl)-N'-cyclopentyl-4-[(4-hydroxy-1-piperidinyl)methyl]benzohydrazide trifluoroacetate] | 15 to 150 |
| CN1CCN(C2CCN(Cc3ccc(C(=O)NN(c4nc(C#N)ncc4Br)C4CCCC4)cc3)CC2)CC1 [Example 10, N'-(5-bromo-2-cyano-4-pyrimidinyl)-N'-cyclopentyl-4-{[4-(4-methyl-1-piperazinyl)-piperidinyl]methyl}benzohydrazide trifluoroacetate] | 2.5 to 15 |
| C[C@H]1CCC[C@H]1N(NC(=O)c1ccc(CN2CCN(C)CC2)cc1)c1nc(C#N)ncc1Br (racemic) [Example 2, N'-(5-bromo-2-cyano-4-pyrimidinyl)-N'-[(1R,2S+1S,2R)-2-methylcyclopentyl]-4-[(4-methyl-1-piperazinyl)methyl]benzohydrazide trifluoroacetate] | 15 to 150 |
